# Measurements taken from the supplement of paper PMC10307832.
# Key:
# Experiment in all cases: relative viability (nuclei count vs DMSO), 5 days (fraction); higher = more cells survive
# LU99A = system: LU99A
# Summary of the method: (§1)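 Lung cancer cell lines, seeded in 1536-well plates, were treated the following day by pin tool with a single drug or with five library-drug doses (not always all listed) in √10 steps on top of a fixed anchor-drug dose. Cells were fixed and nuclei stained in one step after 5 days, and nuclei were counted. Relative viability is the nuclei count for treated wells divided by that for vehicle wells, reported as medians of duplicate plates.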
# NCI-H2405 = system: NCI-H2405
# Summary of the method: as §1
# EPLC-272H = system: EPLC-272H
# Summary of the method: as §1
# PC-3 [JPC-3] = system: PC-3 [JPC-3]
# Summary of the method: as §1
# NCI-H441 = system: NCI-H441
# Summary of the method: as §1
# EKVX = system: EKVX
# Summary of the method: as §1
# SW 1573 = system: SW 1573
# Summary of the method: as §1
# NCI-H2228 = system: NCI-H2228
# Summary of the method: as §1
# LK-2 = system: LK-2
# Summary of the method: as §1
# LXF-289 = system: LXF-289
# Summary of the method: as §1
# NCI-H522 = system: NCI-H522
# Summary of the method: as §1
# HOP-62 = system: HOP-62
# Summary of the method: as §1
# NCI-H1993 = system: NCI-H1993
# Summary of the method: as §1
# NCI-H1355 = system: NCI-H1355
# Summary of the method: as §1
# LCLC-97TM1 = system: LCLC-97TM1
# Summary of the method: as §1
# SK-LU-1 = system: SK-LU-1
# Summary of the method: as §1
# NCI-H2170 = system: NCI-H2170
# Summary of the method: as §1
# HCC-827 = system: HCC-827
# Summary of the method: as §1
# H3255 = system: H3255
# Summary of the method: as §1
# UMC-11 = system: UMC-11
# Summary of the method: as §1
# NCI-H3122 = system: NCI-H3122
# Summary of the method: as §1
# NCI-H1650 = system: NCI-H1650
# Summary of the method: as §1
# ChaGo-K-1 = system: ChaGo-K-1
# Summary of the method: as §1
smiles,measurement,setting,value
Cc1csc(=NC2CCCCC2)n1/N=C/c1ccc(O)c(O)c1O [MIM1] + O=C(c1cc(Cc2n[nH]c(=O)c3ccccc23)ccc1F)N1CCN(C(=O)C2CC2)CC1 [Olaparib] (partner 8 µM),relative viability,LU99A; first compound 0.2 µM,0.298
same,relative viability,LU99A; first compound 0.6325 µM,0.246
same,relative viability,LU99A; first compound 2 µM,0.207
same,relative viability,LU99A; first compound 6.325 µM,0.272
same,relative viability,LU99A; first compound 20 µM,0.125
same,relative viability,NCI-H2405; first compound 0.2 µM,0.881
same,relative viability,NCI-H2405; first compound 0.6325 µM,0.918
same,relative viability,NCI-H2405; first compound 2 µM,0.827
same,relative viability,NCI-H2405; first compound 6.325 µM,0.681
same,relative viability,NCI-H2405; first compound 20 µM,0.369
same,relative viability,EPLC-272H; first compound 0.2 µM,0.664
same,relative viability,EPLC-272H; first compound 0.6325 µM,0.858
same,relative viability,EPLC-272H; first compound 2 µM,0.622
same,relative viability,EPLC-272H; first compound 6.325 µM,0.111
same,relative viability,EPLC-272H; first compound 20 µM,0.108
same,relative viability,PC-3 [JPC-3]; first compound 0.2 µM,1.14
same,relative viability,PC-3 [JPC-3]; first compound 0.6325 µM,1.04
same,relative viability,PC-3 [JPC-3]; first compound 2 µM,1.07
same,relative viability,PC-3 [JPC-3]; first compound 6.325 µM,0.871
same,relative viability,PC-3 [JPC-3]; first compound 20 µM,0.504
same,relative viability,NCI-H441; first compound 0.2 µM,0.485
same,relative viability,NCI-H441; first compound 0.6325 µM,0.66
same,relative viability,NCI-H441; first compound 2 µM,0.581
same,relative viability,NCI-H441; first compound 6.325 µM,0.254
same,relative viability,NCI-H441; first compound 20 µM,0.144
same,relative viability,EKVX; first compound 0.2 µM,0.776
same,relative viability,EKVX; first compound 0.6325 µM,0.785
same,relative viability,EKVX; first compound 2 µM,0.59
same,relative viability,EKVX; first compound 6.325 µM,0.51
same,relative viability,EKVX; first compound 20 µM,0.412
same,relative viability,SW 1573; first compound 0.2 µM,0.515
same,relative viability,SW 1573; first compound 0.6325 µM,0.471
same,relative viability,SW 1573; first compound 2 µM,0.608
same,relative viability,SW 1573; first compound 6.325 µM,0.321
same,relative viability,SW 1573; first compound 20 µM,0.1
same,relative viability,NCI-H2228; first compound 0.2 µM,0.719
same,relative viability,NCI-H2228; first compound 0.6325 µM,0.719
same,relative viability,NCI-H2228; first compound 2 µM,0.861
same,relative viability,NCI-H2228; first compound 6.325 µM,0.227
same,relative viability,NCI-H2228; first compound 20 µM,0.192
same,relative viability,LK-2; first compound 0.2 µM,0.934
same,relative viability,LK-2; first compound 0.6325 µM,0.75
same,relative viability,LK-2; first compound 2 µM,0.472
same,relative viability,LK-2; first compound 6.325 µM,0.685
same,relative viability,LK-2; first compound 20 µM,0.148
same,relative viability,LXF-289; first compound 0.2 µM,1.04
same,relative viability,LXF-289; first compound 0.6325 µM,0.844
same,relative viability,LXF-289; first compound 2 µM,1.13
same,relative viability,LXF-289; first compound 6.325 µM,0.915
same,relative viability,LXF-289; first compound 20 µM,0.179
same,relative viability,NCI-H522; first compound 0.2 µM,0.597
same,relative viability,NCI-H522; first compound 0.6325 µM,0.625
same,relative viability,NCI-H522; first compound 2 µM,0.587
same,relative viability,NCI-H522; first compound 6.325 µM,0.725
same,relative viability,NCI-H522; first compound 20 µM,0.466
same,relative viability,HOP-62; first compound 0.2 µM,0.424
same,relative viability,HOP-62; first compound 0.6325 µM,0.529
same,relative viability,HOP-62; first compound 2 µM,0.169
same,relative viability,HOP-62; first compound 6.325 µM,0.293
same,relative viability,HOP-62; first compound 20 µM,0.115
same,relative viability,NCI-H1993; first compound 0.2 µM,1
same,relative viability,NCI-H1993; first compound 0.6325 µM,0.819
same,relative viability,NCI-H1993; first compound 2 µM,0.949
same,relative viability,NCI-H1993; first compound 6.325 µM,0.873
same,relative viability,NCI-H1993; first compound 20 µM,0.432
same,relative viability,NCI-H1355; first compound 0.2 µM,0.731
same,relative viability,NCI-H1355; first compound 0.6325 µM,0.664
same,relative viability,NCI-H1355; first compound 2 µM,0.803
same,relative viability,NCI-H1355; first compound 6.325 µM,0.603
same,relative viability,NCI-H1355; first compound 20 µM,0.297
same,relative viability,LCLC-97TM1; first compound 0.2 µM,0.436
same,relative viability,LCLC-97TM1; first compound 0.6325 µM,0.46
same,relative viability,LCLC-97TM1; first compound 2 µM,0.343
same,relative viability,LCLC-97TM1; first compound 6.325 µM,0.24
same,relative viability,LCLC-97TM1; first compound 20 µM,0.0564
same,relative viability,SK-LU-1; first compound 0.2 µM,0.447
same,relative viability,SK-LU-1; first compound 0.6325 µM,0.559
same,relative viability,SK-LU-1; first compound 2 µM,0.575
same,relative viability,SK-LU-1; first compound 6.325 µM,0.281
same,relative viability,SK-LU-1; first compound 20 µM,0.299
same,relative viability,NCI-H2170; first compound 0.2 µM,0.539
same,relative viability,NCI-H2170; first compound 0.6325 µM,0.533
same,relative viability,NCI-H2170; first compound 2 µM,0.528
same,relative viability,NCI-H2170; first compound 6.325 µM,0.269
same,relative viability,NCI-H2170; first compound 20 µM,0.141
same,relative viability,HCC-827; first compound 0.2 µM,0.653
same,relative viability,HCC-827; first compound 0.6325 µM,0.626
same,relative viability,HCC-827; first compound 2 µM,0.639
same,relative viability,HCC-827; first compound 6.325 µM,0.37
same,relative viability,HCC-827; first compound 20 µM,0.241
same,relative viability,H3255; first compound 0.2 µM,0.535
same,relative viability,H3255; first compound 0.6325 µM,0.541
same,relative viability,H3255; first compound 2 µM,0.518
same,relative viability,H3255; first compound 6.325 µM,0.473
same,relative viability,H3255; first compound 20 µM,0.253
same,relative viability,UMC-11; first compound 0.2 µM,0.408
same,relative viability,UMC-11; first compound 0.6325 µM,0.4
same,relative viability,UMC-11; first compound 2 µM,0.548
same,relative viability,UMC-11; first compound 6.325 µM,0.237
same,relative viability,UMC-11; first compound 20 µM,0.183
same,relative viability,NCI-H3122; first compound 0.2 µM,0.626
same,relative viability,NCI-H3122; first compound 0.6325 µM,0.643
same,relative viability,NCI-H3122; first compound 2 µM,0.618
same,relative viability,NCI-H3122; first compound 6.325 µM,0.325
same,relative viability,NCI-H3122; first compound 20 µM,0.113
same,relative viability,NCI-H1650; first compound 0.2 µM,0.627
same,relative viability,NCI-H1650; first compound 0.6325 µM,0.828
same,relative viability,NCI-H1650; first compound 2 µM,0.499
same,relative viability,NCI-H1650; first compound 6.325 µM,0.226
same,relative viability,NCI-H1650; first compound 20 µM,0.233
same,relative viability,ChaGo-K-1; first compound 0.2 µM,0.399
same,relative viability,ChaGo-K-1; first compound 0.6325 µM,0.346
same,relative viability,ChaGo-K-1; first compound 2 µM,0.385
same,relative viability,ChaGo-K-1; first compound 6.325 µM,0.214
same,relative viability,ChaGo-K-1; first compound 20 µM,0.127
